From paper PMC5218480 (PLoS ONE, 2017)

Test system: MV-4-11 cells
Assay: Gene expression microarray analysis (Affymetrix PrimeView) and GSEA
Format: cell-based, human
Design: RFU PODN (11730768_x_at) / Fold change /veh PODN (11730768_x_at) / RFU LINC00158 (11744669_a_at) / Fold change /veh LINC00158 (11744669_a_at) / RFU DUSP10 (11751237_a_at) / Fold change /veh DUSP10 (11751237_a_at) / RFU ID3 (11757404_x_at) / Fold change /veh ID3 (11757404_x_at) / RFU PLEKHG5 (11737974_s_at) / Fold change /veh PLEKHG5 (11737974_s_at) / RFU LRRC4B (11730491_at) / Fold change /veh LRRC4B (11730491_at) / RFU GIMAP4 (11747438_a_at) / Fold change /veh GIMAP4 (11747438_a_at) / RFU KRT8 (11758183_x_at) / Fold change /veh KRT8 (11758183_x_at) / RFU CNN1 (11734310_a_at) / Fold change /veh CNN1 (11734310_a_at) / RFU VPS37D (11726825_at) / Fold change /veh VPS37D (11726825_at) / RFU C10orf10 (11716522_x_at) / Fold change /veh C10orf10 (11716522_x_at) / RFU KIR2DL2 /// KIR2DL4 /// KIR2DL5A /// KIR2DL5B /// KIR2DS1 /// KIR2DS2 /// KIR2DS3 /// KIR2DS4 /// KIR3DL3 /// KIR3DL3 /// KIR3DS1 (11738374_at) / Fold change /veh KIR2DL2 /// KIR2DL4 /// KIR2DL5A /// KIR2DL5B /// KIR2DS1 /// KIR2DS2 /// KIR2DS3 /// KIR2DS4 /// KIR3DL3 /// KIR3DL3 /// KIR3DS1 (11738374_at) / RFU C1QL1 (11718748_at) / Fold change /veh C1QL1 (11718748_at) / RFU TMPRSS4 (11747572_a_at) / Fold change /veh TMPRSS4 (11747572_a_at) / RFU HAMP (11756126_x_at) / Fold change /veh HAMP (11756126_x_at) / RFU RNFT2 (11725882_a_at) / Fold change /veh RNFT2 (11725882_a_at) / RFU NR4A2 (11747474_a_at) / Fold change /veh NR4A2 (11747474_a_at) / RFU ABCC12 (11746883_a_at) / Fold change /veh ABCC12 (11746883_a_at) / RFU TMEM136 (11760407_x_at) / Fold change /veh TMEM136 (11760407_x_at) / RFU CLDN22 /// WWC2 (11732394_at) / Fold change /veh CLDN22 /// WWC2 (11732394_at) / RFU HLA-DPB1 (11760878_x_at) / Fold change /veh HLA-DPB1 (11760878_x_at) / RFU SPINT1 (11716480_a_at) / Fold change /veh SPINT1 (11716480_a_at) / RFU GAP43 (11754022_s_at) / Fold change /veh GAP43 (11754022_s_at) / RFU A4GNT (11735810_at) / Fold change /veh A4GNT (11735810_at) / RFU PRB3 (11715151_x_at) / Fold change /veh PRB3 (11715151_x_at) / RFU TUBB4B (11761932_at) / Fold change /veh TUBB4B (11761932_at) / RFU CAPN14 (11732068_a_at) / Fold change /veh CAPN14 (11732068_a_at) / RFU TMCC2 (11721928_a_at) / Fold change /veh TMCC2 (11721928_a_at) / RFU IRGQ (11745062_a_at) / Fold change /veh IRGQ (11745062_a_at) / RFU FAM174B (11720279_a_at) / Fold change /veh FAM174B (11720279_a_at) / RFU TMPRSS4 (11748680_a_at) / Fold change /veh TMPRSS4 (11748680_a_at) / RFU FAM212B (11763350_a_at) / Fold change /veh FAM212B (11763350_a_at) / RFU PLEKHG5 (11743358_a_at) / Fold change /veh PLEKHG5 (11743358_a_at) / RFU ZSCAN30 (11745921_a_at) / Fold change /veh ZSCAN30 (11745921_a_at) / RFU CMKLR1 (11741424_a_at) / Fold change /veh CMKLR1 (11741424_a_at) / RFU LOC101060620 /// MAPK8IP1 (11723275_at) / Fold change /veh LOC101060620 /// MAPK8IP1 (11723275_at) / RFU SPTSSB (11747773_x_at) / Fold change /veh SPTSSB (11747773_x_at) / RFU PRSS12 (11739890_at) / Fold change /veh PRSS12 (11739890_at) / RFU BIN1 (11741810_x_at) / Fold change /veh BIN1 (11741810_x_at) / RFU WNT11 (11732464_a_at) / Fold change /veh WNT11 (11732464_a_at) / RFU C10orf10 (11716521_a_at) / Fold change /veh C10orf10 (11716521_a_at) / RFU C5orf56 (11738089_at) / Fold change /veh C5orf56 (11738089_at) / RFU CYB561 (11721691_x_at) / Fold change /veh CYB561 (11721691_x_at) / RFU ANKRD19P (11752326_a_at) / Fold change /veh ANKRD19P (11752326_a_at) / RFU OR2T12 /// OR2T33 /// OR2T8 (11738714_s_at) / Fold change /veh OR2T12 /// OR2T33 /// OR2T8 (11738714_s_at) / RFU VCAN (11748164_a_at) / Fold change /veh VCAN (11748164_a_at) / RFU JSRP1 (11732532_at) / Fold change /veh JSRP1 (11732532_at) / RFU KRTAP10-11 (11738290_x_at) / Fold change /veh KRTAP10-11 (11738290_x_at) / RFU MYO3A (11730013_a_at) / Fold change /veh MYO3A (11730013_a_at) / RFU EBF3 (11725865_a_at) / Fold change /veh EBF3 (11725865_a_at) / RFU CAMK2N1 (11719241_x_at) / Fold change /veh CAMK2N1 (11719241_x_at) / RFU C5orf56 (11738088_a_at) / Fold change /veh C5orf56 (11738088_a_at) / RFU OLFML3 (11715873_a_at) / Fold change /veh OLFML3 (11715873_a_at) / RFU LOC100653217 /// NTM (11731650_a_at) / Fold change /veh LOC100653217 /// NTM (11731650_a_at) / RFU MAPK11 (11762145_a_at) / Fold change /veh MAPK11 (11762145_a_at) / RFU FIZ1 (11724087_x_at) / Fold change /veh FIZ1 (11724087_x_at) / RFU OASL (11726364_x_at) / Fold change /veh OASL (11726364_x_at) / RFU SOX15 (11748057_x_at) / Fold change /veh SOX15 (11748057_x_at) / RFU CD79A (11719716_a_at) / Fold change /veh CD79A (11719716_a_at) / RFU HIST1H1D (11736915_at) / Fold change /veh HIST1H1D (11736915_at) / RFU CASKIN2 (11723855_a_at) / Fold change /veh CASKIN2 (11723855_a_at) / RFU LOC730098 (11760151_x_at) / Fold change /veh LOC730098 (11760151_x_at) / RFU OR4N2 (11742367_at) / Fold change /veh OR4N2 (11742367_at) / RFU PRRT2 (11749266_a_at) / Fold change /veh PRRT2 (11749266_a_at) / RFU SNX32 (11753110_a_at) / Fold change /veh SNX32 (11753110_a_at) / RFU CDHR5 (11726645_a_at) / Fold change /veh CDHR5 (11726645_a_at) / RFU RCAN1 (11760418_a_at) / Fold change /veh RCAN1 (11760418_a_at) / RFU FAM167A (11723789_a_at) / Fold change /veh FAM167A (11723789_a_at) / RFU FAM26E (11764081_at) / Fold change /veh FAM26E (11764081_at) / RFU ISYNA1 (11749810_s_at) / Fold change /veh ISYNA1 (11749810_s_at) / RFU ACY1 (11761880_at) / Fold change /veh ACY1 (11761880_at) / RFU 11764098_at / Fold change /veh 11764098_at / RFU SAMD14 (11745864_x_at) / Fold change /veh SAMD14 (11745864_x_at) / RFU NPB (11741838_a_at) / Fold change /veh NPB (11741838_a_at) / RFU TMPRSS6 (11731388_a_at) / Fold change /veh TMPRSS6 (11731388_a_at) / RFU KRTAP10-2 (11738614_at) / Fold change /veh KRTAP10-2 (11738614_at) / RFU ARHGAP8 /// PRR5-ARHGAP8 (11727945_x_at) / Fold change /veh ARHGAP8 /// PRR5-ARHGAP8 (11727945_x_at) / RFU KRTAP5-7 /// NADSYN1 (11734609_at) / Fold change /veh KRTAP5-7 /// NADSYN1 (11734609_at) / RFU RASL12 (11751679_a_at) / Fold change /veh RASL12 (11751679_a_at) / RFU CDKN2B (11736163_a_at) / Fold change /veh CDKN2B (11736163_a_at) / RFU PRF1 (11729649_at) / Fold change /veh PRF1 (11729649_at) / RFU, ZNF638 /// ZNF638-IT1 / Fold change vs veh, ZNF638 /// ZNF638-IT1 / RFU, PANK3 / Fold change vs veh, PANK3 / RFU, SH3YL1 / Fold change vs veh, SH3YL1 / RFU, ZEB2 / Fold change vs veh, ZEB2 / RFU, NRIP1 / Fold change vs veh, NRIP1 / RFU, PTTG1IP / Fold change vs veh, PTTG1IP / RFU, CAPN2 / Fold change vs veh, CAPN2 / RFU, MED14 / Fold change vs veh, MED14 / RFU, SNORA58 / Fold change vs veh, SNORA58 / RFU, C1orf63 / Fold change vs veh, C1orf63 / RFU, LRRFIP1 / Fold change vs veh, LRRFIP1 / RFU, NDUFAF7 / Fold change vs veh, NDUFAF7 / RFU, SLC12A2 / Fold change vs veh, SLC12A2 / RFU, IBTK / Fold change vs veh, IBTK / RFU, ESF1 / Fold change vs veh, ESF1 / Fold change vs veh, TMEM50B / RFU, TAOK1 / Fold change vs veh, TAOK1 / RFU, ACBD3 / Fold change vs veh, ACBD3 / RFU, TMA16 / Fold change vs veh, TMA16 / RFU, RWDD3 / Fold change vs veh, RWDD3 / RFU, BCAT1 / Fold change vs veh, BCAT1 / RFU, EDEM3 / Fold change vs veh, EDEM3 / RFU, TMEM33 / Fold change vs veh, TMEM33 / RFU, WDR75 / Fold change vs veh, WDR75 / RFU, AHCTF1 / Fold change vs veh, AHCTF1 / RFU, TFRC / Fold change vs veh, TFRC / RFU, ZDHHC17 / Fold change vs veh, ZDHHC17 / RFU, NOM1 / Fold change vs veh, NOM1 / RFU, ARL8B / Fold change vs veh, ARL8B / RFU, ZBTB11 / Fold change vs veh, ZBTB11 / RFU, TAMM41 / Fold change vs veh, TAMM41 / RFU, KIAA1704 /// LOC100996395 / Fold change vs veh, KIAA1704 /// LOC100996395 / RFU, ING1 / Fold change vs veh, ING1 / RFU, TRMT61B / Fold change vs veh, TRMT61B / RFU, FUBP3 / Fold change vs veh, FUBP3 / RFU, TP53 / Fold change vs veh, TP53 / RFU, TNKS2 / Fold change vs veh, TNKS2 / RFU, ZFP14 / Fold change vs veh, ZFP14 / RFU, ACTR2 / Fold change vs veh, ACTR2 / RFU, PPP3R1 / Fold change vs veh, PPP3R1 / RFU, PIK3R1 / Fold change vs veh, PIK3R1 / RFU, HNRNPA1 / Fold change vs veh, HNRNPA1 / RFU, RNF170 / Fold change vs veh, RNF170 / RFU, ZNF28 / Fold change vs veh, ZNF28 / RFU, RNGTT / Fold change vs veh, RNGTT / RFU, OGT / Fold change vs veh, OGT / RFU, BRD1 / Fold change vs veh, BRD1 / RFU, MARS / Fold change vs veh, MARS / RFU, ZNF655 / Fold change vs veh, ZNF655 / RFU, FAHD1 / Fold change vs veh, FAHD1 / RFU, BDP1 / Fold change vs veh, BDP1 / RFU, LRRCC1 / Fold change vs veh, LRRCC1 / RFU, ARID1A / Fold change vs veh, ARID1A / RFU, ZNF146 / Fold change vs veh, ZNF146 / RFU, ZNF330 / Fold change vs veh, ZNF330 / RFU, GPN3 / Fold change vs veh, GPN3 / RFU, C9orf123 / Fold change vs veh, C9orf123 / RFU, N4BP2L2 / Fold change vs veh, N4BP2L2 / RFU, ARFIP1 / Fold change vs veh, ARFIP1 / RFU, FAM179B / Fold change vs veh, FAM179B / RFU, BCL10 / Fold change vs veh, BCL10 / RFU, UHRF1BP1L / Fold change vs veh, UHRF1BP1L / RFU, BET1 / Fold change vs veh, BET1 / RFU, CNOT2 / Fold change vs veh, CNOT2 / RFU, ZNF268 / Fold change vs veh, ZNF268 / Fold change vs veh, ZNF507 / RFU, DGCR2 / Fold change vs veh, DGCR2 / RFU, WDSUB1 / Fold change vs veh, WDSUB1 / Fold change vs veh, HSP90B1 /// MIR3652 / RFU, ADSS / Fold change vs veh, ADSS / RFU, GK / Fold change vs veh, GK / RFU, ZNF148 / Fold change vs veh, ZNF148 / RFU, TAF9 / Fold change vs veh, TAF9 / RFU, SLC1A5 / Fold change vs veh, SLC1A5 / RFU, SLMO2 / Fold change vs veh, SLMO2 / RFU, ABCC4 / Fold change vs veh, ABCC4 / RFU, LOC101060439 /// RAP1B / Fold change vs veh, LOC101060439 /// RAP1B / RFU, RFX7 / Fold change vs veh, RFX7 / RFU, GTPBP10 / Fold change vs veh, GTPBP10 / RFU, CNEP1R1 / Fold change vs veh, CNEP1R1 / RFU, BIVM-ERCC5 /// ERCC5 / Fold change vs veh, BIVM-ERCC5 /// ERCC5 / RFU, ILF3 / Fold change vs veh, ILF3 / RFU 11762660_at / Fold change /veh 11762660_at / RFU VCAN (11757783_s_at) / Fold change /veh VCAN (11757783_s_at) / RFU DDX43 (11728927_at) / Fold change /veh DDX43 (11728927_at) / RFU KRT8 (11758188_x_at) / Fold change /veh KRT8 (11758188_x_at) / RFU NKD1 (11759106_at) / Fold change /veh NKD1 (11759106_at) / RFU SRD5A1 (11742802_a_at) / Fold change /veh SRD5A1 (11742802_a_at) / RFU TPSAB1 /// TPSB2 (11721975_s_at) / Fold change /veh TPSAB1 /// TPSB2 (11721975_s_at) / RFU GSTM3 (11746129_a_at) / Fold change /veh GSTM3 (11746129_a_at) / RFU IL23R (11737362_x_at) / Fold change /veh IL23R (11737362_x_at) / RFU TMEM51 (11727254_a_at) / Fold change /veh TMEM51 (11727254_a_at) / RFU PIWIL2 (11732686_x_at) / Fold change /veh PIWIL2 (11732686_x_at) / RFU ORM1 (11744905_x_at) / Fold change /veh ORM1 (11744905_x_at) / RFU CCDC152 (11743942_at) / Fold change /veh CCDC152 (11743942_at) / RFU ECM1 (11717891_a_at) / Fold change /veh ECM1 (11717891_a_at) / RFU IL23R (11748794_a_at) / Fold change /veh IL23R (11748794_a_at) / RFU TNFAIP8L3 (11732012_x_at) / Fold change /veh TNFAIP8L3 (11732012_x_at) / RFU MBOAT4 (11741988_at) / Fold change /veh MBOAT4 (11741988_at) / RFU 11764193_at / Fold change /veh 11764193_at / RFU TMEM53 (11763286_at) / Fold change /veh TMEM53 (11763286_at) / RFU MAGEB2 (11727129_at) / Fold change /veh MAGEB2 (11727129_at) / RFU TMEM200A (11744735_a_at) / Fold change /veh TMEM200A (11744735_a_at) / RFU CCDC152 (11751479_a_at) / Fold change /veh CCDC152 (11751479_a_at) / RFU FAM211A (11726209_a_at) / Fold change /veh FAM211A (11726209_a_at) / RFU RGS16 (11746705_a_at) / Fold change /veh RGS16 (11746705_a_at) / RFU VCAN (11755009_s_at) / Fold change /veh VCAN (11755009_s_at) / RFU RHOB (11743442_s_at) / Fold change /veh RHOB (11743442_s_at) / RFU RGS16 (11720943_a_at) / Fold change /veh RGS16 (11720943_a_at) / RFU RGS16 (11720944_at) / Fold change /veh RGS16 (11720944_at) / RFU, VPS4B / Fold change vs veh, VPS4B / RFU, CREB1 / Fold change vs veh, CREB1 / RFU, DNAJC13 / Fold change vs veh, DNAJC13 / RFU, GNAQ / Fold change vs veh, GNAQ / RFU, CDK5R1 / Fold change vs veh, CDK5R1 / RFU, ZRANB3 / Fold change vs veh, ZRANB3 / RFU, CUL4A / Fold change vs veh, CUL4A / RFU, CCNY / Fold change vs veh, CCNY / RFU, UFL1 / Fold change vs veh, UFL1 / RFU, COG3 / Fold change vs veh, COG3 / RFU, DIAPH2 / Fold change vs veh, DIAPH2 / RFU, SKA2 / Fold change vs veh, SKA2 / RFU, AFF3 / Fold change vs veh, AFF3 / RFU, LMF1 / Fold change vs veh, LMF1 / RFU, IPO11 / Fold change vs veh, IPO11 / RFU, DFFB / Fold change vs veh, DFFB / RFU, FOXP1 / Fold change vs veh, FOXP1 / RFU, CARD8 / Fold change vs veh, CARD8 / RFU, STRN3 / Fold change vs veh, STRN3 / RFU, ADK / Fold change vs veh, ADK / RFU, RASSF2 / Fold change vs veh, RASSF2 / RFU, WIPF1 / Fold change vs veh, WIPF1 / RFU, LARP1B / Fold change vs veh, LARP1B / RFU, RASA1 / Fold change vs veh, RASA1 / RFU, RB1 / Fold change vs veh, RB1 / RFU, PPFIA1 / Fold change vs veh, PPFIA1 / RFU, MAT2A / Fold change vs veh, MAT2A / RFU, CCT5 / Fold change vs veh, CCT5 / RFU, WDR92 / Fold change vs veh, WDR92 / RFU, CUX1 / Fold change vs veh, CUX1 / RFU, TTC7A / Fold change vs veh, TTC7A / RFU, TMEM135 / Fold change vs veh, TMEM135 / RFU, DEPTOR / Fold change vs veh, DEPTOR / RFU, CPM / Fold change vs veh, CPM / RFU, DNAJB6 / Fold change vs veh, DNAJB6 / RFU, CACNA2D3 / Fold change vs veh, CACNA2D3 / RFU, DTX4 / Fold change vs veh, DTX4 / RFU, TFCP2 / Fold change vs veh, TFCP2 / RFU, GMCL1 /// GMCL1P1 / Fold change vs veh, GMCL1 /// GMCL1P1 / RFU, AEBP2 / Fold change vs veh, AEBP2 / RFU, SNHG1 /// SNORD22 /// SNORD25 /// SNORD26 /// SNORD27 /// SNORD28 /// SNORD29 /// SNORD31 / Fold change vs veh, SNHG1 /// SNORD22 /// SNORD25 /// SNORD26 /// SNORD27 /// SNORD28 /// SNORD29 /// SNORD31 / Fold change (Aza/veh), C12orf56 (ProbeSet 11735607_a_at) / Fold change (ACY-1035/veh), C12orf56 (ProbeSet 11735607_a_at) / Fold change (Aza/veh), FGFR1OP (ProbeSet 11751329_s_at) / Fold change (ACY-1035/veh), FGFR1OP (ProbeSet 11751329_s_at) / Fold change (Aza/veh), VPS36 (ProbeSet 11739960_a_at) / Fold change (ACY-1035/veh), VPS36 (ProbeSet 11739960_a_at) / RFU SYPL1 (11715823_x_at) / Fold change /veh SYPL1 (11715823_x_at) / RFU IGFBP7 (11715501_s_at) / Fold change /veh IGFBP7 (11715501_s_at) / RFU REEP3 (11722064_at) / Fold change /veh REEP3 (11722064_at) / RFU IGLL1 (11728026_x_at) / Fold change /veh IGLL1 (11728026_x_at): dose or concentration left out as unconfirmed
Details: MV-4-11 cells, 48 hours

Compound: Nc1ncn([C@@H]2O[C@H](CO)[C@@H](O)[C@H]2O)c(=O)n1 [azacitidine]
- Fold change /veh TMEM136 (11760407_x_at): 1.19
